Measurements from patent US20160046618A1, “Cyclopropyl Fused Thiazin-2-Amine Compounds as Beta-Secretase Inhibitors and Methods of Use” (AMGEN INC., priority 2014, published 2016).
Like-named read-outs stand apart in the source and are kept apart here.

What was measured:
Aβ 40 in rat brain = experiment: In vivo inhibition of beta-secretase: Aβ40 reduction in rat brain; conditions: 10 mpk, after 4 h
How it was run: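 Rats were dosed by oral gavage at up to 100 mg/kg in 2% HPMC, 1% Tween80, pH 2.2, with vehicle-only controls. Supernatant Aβ40 was measured by ECL sandwich ELISA with biotinylated-4G8 capture and C-terminal Fab40 detection.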

Recombinant Cat D = Recombinant Cat D (Homo sapiens (Human), UniProt P07339); experiment: In vitro enzymatic Cathepsin D (Cat D) FRET assay; type: biochemical; conditions: read-out: IC50 IP (μM) CatD
How it was run: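 Human Cat D expressed in CHO cells was incubated for one hour in 0.05 M citrate pH 3.5, 5 mM CHAPS, 10% DMSO final, with 20 nM quenched FRET peptide substrate. Reactions were stopped with Tris buffer raising pH to neutrality. Cleavage was read as fluorescence at excitation 500 nm, emission 580 nm.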

human recombinant BACE1 = human recombinant BACE1 (Homo sapiens (Human), UniProt P56817); experiment: In vitro enzymatic BACE1 FRET assay; type: biochemical; conditions: read-out: IC50 IP (μM) BACE1 enzyme
How it was run: (§1)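 Protease purified by Ni-NTA chromatography; start with FRET substrate (50 nM); incubate 1 h; quench with Tris to neutral pH; read fluorescence ex 488 / em 590 nm.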

[1] = system: Aβ40 in conditioned medium of cells stably expressing Amyloid Precursor Protein (APP); experiment: In vitro BACE-1 cell-based assay (Aβ40 sandwich ELISA); conditions: read-out: IC50 IP (μM) BACE1 cell
How it was run: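 APP-expressing cells treated 24 h at 37 °C with compound in 10-point dose response (top 100 μM or 10 μM, 0.1% DMSO final). Secreted Aβ40 in conditioned medium quantified by sandwich ELISA (pAb40 capture, biotinylated 6E10 detection, time-resolved europium fluorescence); IC50 from percent inhibition versus concentration.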

Aβ 40 in rat CSF = experiment: In vivo inhibition of beta-secretase: Aβ40 reduction in rat CSF; conditions: 10 mpk, after 4 h
How it was run: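 Male Sprague Dawley rats (200 g) dosed orally in 2% HPMC, 1% Tween80, pH 2.2, at 3, 10 or 30 mg/kg; CSF and brain taken 4 h later. Brain homogenate centrifuged at 355,000 g; Aβ40 measured by ECL sandwich ELISA (4G8 capture, Abeta40 C-terminal Fab detection), as % reduction versus vehicle controls.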

human recombinant BACE2 = human recombinant BACE2 (Homo sapiens (Human), UniProt Q9Y5Z0); experiment: In vitro enzymatic BACE2 FRET assay; type: biochemical; conditions: read-out: IC50 IP (μM) BACE2 enzyme
How it was run: as §1

Aβ in lumbar CSF = conditions: oral dosing of 30 or 90 mg; cited from earlier work
[2] = healthy volunteers; cited from earlier work
[3] = system: pigment epithelium of the rat's eye; conditions: higher compound dose given for three months; cited from earlier work
[4] = cited from earlier work
CSF Aβ40 = conditions: healthy individuals, 36 h post-dose, cited from earlier work
[5] = phase 1, healthy individuals; cited from earlier work

Chain of Recombinant Cat D (P07339 65-412): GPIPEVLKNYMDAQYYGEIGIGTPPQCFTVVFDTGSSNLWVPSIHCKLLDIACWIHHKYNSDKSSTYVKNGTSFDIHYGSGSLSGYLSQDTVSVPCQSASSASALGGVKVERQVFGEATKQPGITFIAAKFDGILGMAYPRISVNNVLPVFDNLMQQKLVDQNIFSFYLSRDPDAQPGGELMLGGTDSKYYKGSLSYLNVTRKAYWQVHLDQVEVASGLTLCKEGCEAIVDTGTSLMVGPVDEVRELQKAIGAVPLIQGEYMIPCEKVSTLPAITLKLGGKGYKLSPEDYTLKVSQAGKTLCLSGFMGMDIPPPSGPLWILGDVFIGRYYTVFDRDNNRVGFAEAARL
Chain of human recombinant BACE2 (Q9Y5Z0 63-518): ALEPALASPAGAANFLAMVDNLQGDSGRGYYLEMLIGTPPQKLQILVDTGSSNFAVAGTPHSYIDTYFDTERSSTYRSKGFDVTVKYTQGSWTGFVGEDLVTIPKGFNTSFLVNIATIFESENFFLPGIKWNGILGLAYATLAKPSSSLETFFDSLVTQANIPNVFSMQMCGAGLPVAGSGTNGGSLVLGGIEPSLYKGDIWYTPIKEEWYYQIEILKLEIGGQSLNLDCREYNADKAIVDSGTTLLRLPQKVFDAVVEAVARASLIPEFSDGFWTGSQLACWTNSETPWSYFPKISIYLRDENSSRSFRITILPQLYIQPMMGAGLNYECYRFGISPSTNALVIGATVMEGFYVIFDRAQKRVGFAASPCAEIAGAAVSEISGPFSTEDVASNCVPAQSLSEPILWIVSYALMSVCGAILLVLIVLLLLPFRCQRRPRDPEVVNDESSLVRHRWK
Chain of human recombinant BACE1 (P56817 46-501): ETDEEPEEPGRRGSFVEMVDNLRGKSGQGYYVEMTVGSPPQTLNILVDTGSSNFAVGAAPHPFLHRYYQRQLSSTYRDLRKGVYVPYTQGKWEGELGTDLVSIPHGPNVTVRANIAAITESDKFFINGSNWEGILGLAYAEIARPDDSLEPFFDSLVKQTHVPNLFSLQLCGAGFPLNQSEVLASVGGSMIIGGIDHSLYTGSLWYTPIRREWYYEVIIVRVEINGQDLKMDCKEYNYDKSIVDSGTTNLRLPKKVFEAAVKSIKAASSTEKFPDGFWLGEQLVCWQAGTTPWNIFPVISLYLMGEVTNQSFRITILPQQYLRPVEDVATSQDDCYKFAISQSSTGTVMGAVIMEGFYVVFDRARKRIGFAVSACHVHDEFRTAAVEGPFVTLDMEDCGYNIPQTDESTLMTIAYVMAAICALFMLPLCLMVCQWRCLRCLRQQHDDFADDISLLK

For `Cc1noc(COc2cnc(C(=O)Nc3ccc(F)c([C@@]4(C)N=C(N)S[C@@]5(C(F)F)C[C@@H]45)c3)cn2)n1` [Example 1039, N-(3-((1S,5S,6S)-3-amino-1-(difluoromethyl)-5-methyl-2-thia-4-azabicyclo[4.1.0]hept-3-en-5-yl)-4-fluorophenyl)-5-((3-methyl-1,2,4-oxadiazol-5-yl)metnoxy)-2-pyrazinecarboxamide], the “% Aβ 40 reduction in rat brain at 10 mpk” value (Aβ 40 in rat brain) was 16%, the IC50 (Recombinant Cat D) was 725 µM and the IC50 (human recombinant BACE1) was 0.000941 µM. For the same compound, the IC50 [1] was 0.00251 µM, the “% Aβ 40 reduction in rat CSF at 10 mpk” value (Aβ 40 in rat CSF) was 13% and the IC50 (human recombinant BACE2) was 0.171 µM.

For `C[C@@]1(c2cc(-c3cncnc3)c(F)cc2F)CCSC(N)=N1` [LY2811376, (S)-4-(2,4-difluoro-5-pyrimidin-5-yl-phenyl)-4-methyl-5,6-dihydro-4H-[1,3]thiazin-2-ylamine], the “Aβ reductions in lumbar CSF” value (Aβ in lumbar CSF) is listed as “Prominent and long-lasting Aβ reductions” and the safety and tolerability [2] is listed as “safe and well tolerated”.

For `C[C@@]1(c2cc(-c3cncnc3)c(F)cc2F)CCSC(N)=N1` [LY 2811376], the “retinal toxicity finding in rat toxicology studies” value [3] is listed as “damaged the pigment epithelium of the rat's eye” and the “eye assessments of people from the Ph I dosing trial” value [4] is listed as “did not show any abnormalities”.

In the case of `CN1C(=N)N[C@](C)(c2cc(NC(=O)c3ccc(F)cn3)ccc2F)CS1(=O)=O` [MK-8931], the “reduction of CSF Aβ40 concentrations” value (CSF Aβ40; single dose of 100 mg) is listed as 75%, the “reduction of CSF Aβ40 concentrations” value (CSF Aβ40; single dose of 550 mg) is listed as 92% and the tolerability [5] is listed as “generally well tolerated”.
